# Assay results published in the supplement of paper PMC10307832.
# How the values were obtained:
# Test in all cases: relative viability (nuclei count vs DMSO), 5 days (fraction); higher = more cells survive
# [1] = test system: SK-LU-1
# In short: (§1)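 Dosing by pin tool came one day after lung cancer cell lines were seeded in 1536-well plates, using either one drug or a fixed anchor-drug dose plus five library-drug doses (not always all listed) in √10 steps. After 5 days, nuclei were counted on 4× images. Relative viability is treated-well nuclei count divided by vehicle-well nuclei count, and values are medians of duplicate plates.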
# [2] = test system: LCLC-97TM1
# In short: as §1
# [3] = test system: NCI-H727
# In short: as §1
# [4] = test system: NCI-H1650
# In short: as §1
# [5] = test system: CAL-12T
# In short: as §1
# [6] = test system: NCI-H1395
# In short: as §1
# [7] = test system: NCI-H2228
# In short: as §1
# [8] = test system: RERF-LC-KJ
# In short: as §1
# [9] = test system: NCI-H322M
# In short: as §1
# [10] = test system: NCI-H2405
# In short: as §1
# [11] = test system: NCI-H647
# In short: as §1
# [12] = test system: LXF-289
# In short: as §1
# [13] = test system: NCI-H1792
# In short: as §1
# [14] = test system: HCC-827
# In short: as §1
# [15] = test system: NCI-H3122
# In short: as §1
# [16] = test system: NCI-H2087
# In short: as §1
# [17] = test system: BEN
# In short: as §1
# [18] = test system: 201T
# In short: as §1
# [19] = test system: NCI-H1944
# In short: as §1
# [20] = test system: NCI-H1793
# In short: as §1
# [21] = test system: NCI-H1437
# In short: as §1
structure (smiles),measurement,setting,value
Cc1sc2c(c1C)C(c1ccc(Cl)cc1)=N[C@@H](CC(=O)OC(C)(C)C)c1nnc(C)n1-2 [JQ1] + CS(=O)(=O)CCNCc1ccc(-c2ccc3ncnc(Nc4ccc(OCc5cccc(F)c5)c(Cl)c4)c3c2)o1 [Lapatinib] (partner 2 µM),relative viability,[1]; first compound 0.04 µM,0.891
same,relative viability,[1]; first compound 0.1265 µM,0.709
same,relative viability,[1]; first compound 0.4 µM,0.838
same,relative viability,[1]; first compound 1.265 µM,0.388
same,relative viability,[1]; first compound 4 µM,0.271
same,relative viability,[2]; first compound 0.1265 µM,0.805
same,relative viability,[2]; first compound 0.4 µM,0.781
same,relative viability,[2]; first compound 1.265 µM,0.243
same,relative viability,[2]; first compound 4 µM,0.252
same,relative viability,[3]; first compound 0.04 µM,0.727
same,relative viability,[3]; first compound 0.1265 µM,0.695
same,relative viability,[3]; first compound 0.4 µM,0.506
same,relative viability,[3]; first compound 1.265 µM,0.361
same,relative viability,[3]; first compound 4 µM,0.469
same,relative viability,[4]; first compound 0.04 µM,0.704
same,relative viability,[4]; first compound 0.1265 µM,0.469
same,relative viability,[4]; first compound 0.4 µM,0.316
same,relative viability,[4]; first compound 1.265 µM,0.204
same,relative viability,[4]; first compound 4 µM,0.253
same,relative viability,[5]; first compound 0.04 µM,0.748
same,relative viability,[5]; first compound 0.4 µM,0.541
same,relative viability,[5]; first compound 1.265 µM,0.383
same,relative viability,[5]; first compound 4 µM,0.463
same,relative viability,[6]; first compound 0.04 µM,0.931
same,relative viability,[6]; first compound 0.1265 µM,0.733
same,relative viability,[6]; first compound 0.4 µM,0.935
same,relative viability,[6]; first compound 1.265 µM,0.492
same,relative viability,[6]; first compound 4 µM,0.487
same,relative viability,[7]; first compound 0.04 µM,0.902
same,relative viability,[7]; first compound 0.1265 µM,0.876
same,relative viability,[7]; first compound 0.4 µM,0.751
same,relative viability,[7]; first compound 1.265 µM,0.374
same,relative viability,[7]; first compound 4 µM,0.327
same,relative viability,[8]; first compound 0.04 µM,0.807
same,relative viability,[8]; first compound 0.1265 µM,0.856
same,relative viability,[8]; first compound 0.4 µM,0.89
same,relative viability,[8]; first compound 1.265 µM,0.781
same,relative viability,[8]; first compound 4 µM,0.595
same,relative viability,[9]; first compound 0.04 µM,0.634
same,relative viability,[9]; first compound 0.1265 µM,0.658
same,relative viability,[9]; first compound 0.4 µM,0.572
same,relative viability,[9]; first compound 1.265 µM,0.506
same,relative viability,[9]; first compound 4 µM,0.467
same,relative viability,[10]; first compound 0.04 µM,1.19
same,relative viability,[10]; first compound 0.4 µM,1.12
same,relative viability,[10]; first compound 1.265 µM,0.587
same,relative viability,[10]; first compound 4 µM,0.485
same,relative viability,[11]; first compound 0.04 µM,0.997
same,relative viability,[11]; first compound 0.1265 µM,0.509
same,relative viability,[11]; first compound 0.4 µM,0.439
same,relative viability,[11]; first compound 1.265 µM,0.104
same,relative viability,[11]; first compound 4 µM,0.0821
same,relative viability,[12]; first compound 0.04 µM,0.915
same,relative viability,[12]; first compound 0.1265 µM,0.862
same,relative viability,[12]; first compound 0.4 µM,0.917
same,relative viability,[12]; first compound 1.265 µM,0.851
same,relative viability,[12]; first compound 4 µM,0.704
same,relative viability,[13]; first compound 0.04 µM,0.947
same,relative viability,[13]; first compound 0.4 µM,0.916
same,relative viability,[13]; first compound 1.265 µM,0.896
same,relative viability,[13]; first compound 4 µM,0.688
same,relative viability,[14]; first compound 0.04 µM,0.206
same,relative viability,[14]; first compound 0.4 µM,0.21
same,relative viability,[14]; first compound 1.265 µM,0.189
same,relative viability,[14]; first compound 4 µM,0.202
same,relative viability,[15]; first compound 0.04 µM,0.996
same,relative viability,[15]; first compound 0.1265 µM,0.974
same,relative viability,[15]; first compound 0.4 µM,0.981
same,relative viability,[15]; first compound 1.265 µM,1.02
same,relative viability,[15]; first compound 4 µM,0.876
same,relative viability,[16]; first compound 0.04 µM,1.12
same,relative viability,[16]; first compound 0.4 µM,0.904
same,relative viability,[16]; first compound 1.265 µM,0.786
same,relative viability,[16]; first compound 4 µM,0.506
same,relative viability,[17]; first compound 0.04 µM,0.676
same,relative viability,[17]; first compound 0.1265 µM,0.561
same,relative viability,[17]; first compound 0.4 µM,0.427
same,relative viability,[17]; first compound 1.265 µM,0.292
same,relative viability,[17]; first compound 4 µM,0.266
same,relative viability,[18]; first compound 0.04 µM,0.998
same,relative viability,[18]; first compound 0.1265 µM,0.51
same,relative viability,[18]; first compound 0.4 µM,0.974
same,relative viability,[18]; first compound 1.265 µM,0.724
same,relative viability,[18]; first compound 4 µM,0.548
same,relative viability,[19]; first compound 0.04 µM,0.79
same,relative viability,[19]; first compound 0.1265 µM,0.543
same,relative viability,[19]; first compound 0.4 µM,0.614
same,relative viability,[19]; first compound 1.265 µM,0.584
same,relative viability,[19]; first compound 4 µM,0.454
same,relative viability,[20]; first compound 0.04 µM,0.617
same,relative viability,[20]; first compound 0.1265 µM,0.776
same,relative viability,[20]; first compound 0.4 µM,0.805
same,relative viability,[20]; first compound 1.265 µM,0.652
same,relative viability,[20]; first compound 4 µM,0.576
same,relative viability,[21]; first compound 0.04 µM,0.72
same,relative viability,[21]; first compound 0.1265 µM,0.463
same,relative viability,[21]; first compound 0.4 µM,0.403
same,relative viability,[21]; first compound 1.265 µM,0.194
same,relative viability,[21]; first compound 4 µM,0.216
